Laboratory results reported in patent US4065616A, “Processes for production of a 1-N-(α-hydroxy-.PHI.-amino alkanoyl)-3-deoxy-5-O-pentafuranosyl neamine and new compounds produced by the same processes” (Zaidan Hojin Biseibutsu Kagaku Kenkyu Kai, priority 1975, dated 1977).
Values after ≈ are worked out from the molar mass of the structure shown.

How the values were obtained:
[1] = system: Pseudomonas aeruginosa No. 12; experiment: M.I.C. by standard serial dilution method; type: cell-based; conditions: P. aeruginosa No. 12, nutrient agar, 37° C, 18 hours, read-out: minimum inhibitory concentration (M.I.C.)
Protocol: (§1) These particular compounds, that is, 1-n-(α-hydroxy-ω-aminoalkanoyl)-3'-deoxy-5-O-pentofuranosylneamines according to the aforesaid general formula (I) have useful antibacterial activity against a wide variety of bacteria, including gram-negative bacteria and gram-positive bacteria. The minimum inhibitory concentration (M.I.C.) (mcg/ml) of these compounds against various organisms was determined by a standard serial dilution method at an incubation temperature of 37° C, the estimation being made after 18 hours incubation or each test organism, except that the incubation time was 48 hours for Mycobacterium smegmatis. The incubation medium used was nutrient agar.

Sarcina lutea PCl 1001 = experiment: M.I.C. by standard serial dilution method; type: cell-based; conditions: Micrococcus luteus, PCL1001, nutrient agar, 37° C, 18 hours, read-out: minimum inhibitory concentration (M.I.C.)
Protocol: as §1

[2] = system: Escherichia coli K-12 ML 1410; experiment: M.I.C. by standard serial dilution method; type: cell-based; conditions: K12ML1410, E. coli K-12 ML 1410, nutrient agar, 37° C, 18 hours, read-out: minimum inhibitory concentration (M.I.C.)
Protocol: as §1

[3] = system: Escherichia coli K-12 W677; experiment: M.I.C. by standard serial dilution method; type: cell-based; conditions: K12W677, E. coli K-12 W677, nutrient agar, 37° C, 18 hours, read-out: minimum inhibitory concentration (M.I.C.)
Protocol: as §1

[4] = system: Escherichia coli K-12 LA 290 R55; experiment: M.I.C. by standard serial dilution method; type: cell-based; conditions: K12LA290R55, 18 h, read-out: minimum inhibitory concentration (M.I.C.)
Protocol: as §1

[5] = system: Escherichia coli K-12 JR66/W677; experiment: M.I.C. by standard serial dilution method; type: cell-based; conditions: K12JR66/W677, 18 h, read-out: minimum inhibitory concentration (M.I.C.)
Protocol: as §1

[6] = system: Pseudomonas aeruginosa A3; experiment: M.I.C. by standard serial dilution method; type: cell-based; conditions: P. aeruginosa A3, nutrient agar, 37° C, 18 hours, read-out: minimum inhibitory concentration (M.I.C.)
Protocol: as §1

[7] = system: Klebsiella pneumoniae Type 22, No. 3038; experiment: M.I.C. by standard serial dilution method; type: cell-based; conditions: K. pneumoniae Type 22, No. 3038, nutrient agar, 37° C, 18 hours, read-out: minimum inhibitory concentration (M.I.C.)
Protocol: as §1

[8] = system: Pseudomonas aeruginosa 99; experiment: M.I.C. by standard serial dilution method; type: cell-based; conditions: P. aeruginosa 99, nutrient agar, 37° C, 18 hours, read-out: minimum inhibitory concentration (M.I.C.)
Protocol: as §1

[9] = system: Escherichia coli K-12 ML 1410 R81; experiment: M.I.C. by standard serial dilution method; type: cell-based; conditions: 18 h, read-out: minimum inhibitory concentration (M.I.C.)
Protocol: as §1

Escherichia coli NIHJ = experiment: M.I.C. by standard serial dilution method; type: cell-based; conditions: E. coli NIHJ, nutrient agar, 37° C, 18 hours, read-out: minimum inhibitory concentration (M.I.C.)
Protocol: as §1

Salmonella typhosa T-63 = experiment: M.I.C. by standard serial dilution method; type: cell-based; conditions: Salmonella enterica, 18 h, read-out: minimum inhibitory concentration (M.I.C.)
Protocol: as §1

Bacillus subtilis B-558 = experiment: M.I.C. by standard serial dilution method; type: cell-based; conditions: B558, B. subtilis B-558, nutrient agar, 37° C, 18 hours, read-out: minimum inhibitory concentration (M.I.C.)
Protocol: as §1

[10] = system: Escherichia coli K-12 ML 1629; experiment: M.I.C. by standard serial dilution method; type: cell-based; conditions: K12ML1629, E. coli K-12 ML 1629, nutrient agar, 37° C, 18 hours, read-out: minimum inhibitory concentration (M.I.C.)
Protocol: as §1

[11] = system: Escherichia coli K-12 ML 1630; experiment: M.I.C. by standard serial dilution method; type: cell-based; conditions: K12ML1630, E. coli K-12 ML 1630, nutrient agar, 37° C, 18 hours, read-out: minimum inhibitory concentration (M.I.C.)
Protocol: as §1

[12] = system: Escherichia coli K-12 LA 290 R64; experiment: M.I.C. by standard serial dilution method; type: cell-based; conditions: K12LA290R64, 18 h, read-out: minimum inhibitory concentration (M.I.C.)
Protocol: as §1

Escherichia coli K-12 = experiment: M.I.C. by standard serial dilution method; type: cell-based; conditions: K12, E. coli K-12, nutrient agar, 37° C, 18 hours, read-out: minimum inhibitory concentration (M.I.C.)
Protocol: as §1

[13] = system: Mycobacterium smegmatis ATCC 607; experiment: M.I.C. by standard serial dilution method; type: cell-based; conditions: Mycolicibacterium smegmatis, ATCC607, nutrient agar, 37° C, 48 hours, read-out: minimum inhibitory concentration (M.I.C.)
Protocol: as §1

Proteus rettgeri GN 311 = experiment: M.I.C. by standard serial dilution method; type: cell-based; conditions: Providencia rettgeri, GN311, nutrient agar, 37° C, 18 hours, read-out: minimum inhibitory concentration (M.I.C.)
Protocol: as §1

[14] = system: Pseudomonas aeruginosa GN 315; experiment: M.I.C. by standard serial dilution method; type: cell-based; conditions: GN315, P. aeruginosa GN 315, nutrient agar, 37° C, 18 hours, read-out: minimum inhibitory concentration (M.I.C.)
Protocol: as §1

[15] = system: Klebsiella pneumoniae PCI 602; experiment: M.I.C. by standard serial dilution method; type: cell-based; conditions: PCI602, K. pneumoniae PCI 602, nutrient agar, 37° C, 18 hours, read-out: minimum inhibitory concentration (M.I.C.)
Protocol: as §1

Proteus rettgeri GN 466 = experiment: M.I.C. by standard serial dilution method; type: cell-based; conditions: Providencia rettgeri, GN466; Proteus rettgeri GN 466; nutrient agar, 37° C, 18 hours; read-out: minimum inhibitory concentration (M.I.C.)
Protocol: as §1

[16] = system: Escherichia coli K-12 LA 290 R56; experiment: M.I.C. by standard serial dilution method; type: cell-based; conditions: K12LA290R56, 18 h, read-out: minimum inhibitory concentration (M.I.C.)
Protocol: as §1

[17] = system: Pseudomonas aeruginosa TI-13; experiment: M.I.C. by standard serial dilution method; type: cell-based; conditions: TI13, P. aeruginosa TI-13, nutrient agar, 37° C, 18 hours, read-out: minimum inhibitory concentration (M.I.C.)
Protocol: as §1

[18] = system: Staphylococcus aureus FDA 209P; experiment: M.I.C. by standard serial dilution method; type: cell-based; conditions: FDA209P, S. aureus FDA 209P, nutrient agar, 37° C, 18 hours, read-out: minimum inhibitory concentration (M.I.C.)
Protocol: as §1

[19] = system: kanamycin-resistant bacteria; conditions: in words, prior work; cited from earlier work
[20] = clinical tests, in words; cited from earlier work

SMILES	MIC [1] [µg/mL]	MIC (Sarcina lutea PCl 1001) [µg/mL]	MIC [2] [µg/mL]	MIC [3] [µg/mL]	MIC [4] [µg/mL]	MIC [5] [µg/mL]	MIC [6] [µg/mL]	MIC [7] [µg/mL]	MIC [8] [µg/mL]	MIC [9] [µg/mL]	MIC (Escherichia coli NIHJ) [µg/mL]	MIC (Salmonella typhosa T-63) [µg/mL]	MIC (Bacillus subtilis B-558) [µg/mL]	MIC [10] [µg/mL]	MIC [11] [µg/mL]	MIC [12] [µg/mL]	MIC (Escherichia coli K-12) [µg/mL]	MIC [13] [µg/mL]	MIC (Proteus rettgeri GN 311) [µg/mL]	MIC [14] [µg/mL]	also measured
NCC[C@H](O)C(=O)N[C@@H]1C[C@H](N)[C@@H](O[C@H]2O[C@H](CN)[C@@H](O)C[C@H]2N)[C@H](O[C@@H]2O[C@@H](CO)[C@H](O)[C@H]2O)[C@H]1O [Compound No. 3, 1-N-((S)-4-amino-2-hydroxybutyryl)-3'-deoxy-5-O-α-L-arabinofuranosylneamine]	12.5 (≈ 23.2 µM)	25 (≈ 46.3 µM)	0.78 (≈ 1.45 µM)	0.39 (≈ 0.723 µM)	1.56 (≈ 2.89 µM)	1.56 (≈ 2.89 µM)	0.78 (≈ 1.45 µM)	0.39 (≈ 0.723 µM)	6.25 (≈ 11.6 µM)	1.56 (≈ 2.89 µM)	0.78 (≈ 1.45 µM)	0.78 (≈ 1.45 µM)	0.2 (≈ 0.371 µM)	0.39 (≈ 0.723 µM)	0.78 (≈ 1.45 µM)	0.2 (≈ 0.371 µM)	0.39 (≈ 0.723 µM)	0.2 (≈ 0.371 µM)	3.12 (≈ 5.78 µM)	> 100	MIC [15]: 0.39 µg/mL (≈ 0.723 µM); MIC (Proteus rettgeri GN 466): 0.78 µg/mL (≈ 1.45 µM); MIC [16]: 0.39 µg/mL (≈ 0.723 µM); MIC [17]: 25 µg/mL (≈ 46.3 µM); MIC [18]: 0.39 µg/mL (≈ 0.723 µM)
NC[C@@H]1CC[C@@H](N)[C@@H](O[C@H]2[C@H](O)[C@@H](O[C@H]3O[C@H](CO)[C@@H](O)[C@H](N)[C@H]3O)[C@H](N)C[C@@H]2N)O1 [DKB, 3',4'-dideoxykanamycin B]																					antibacterial activity against resistant bacteria [19]: high antibacterial activity against the above-mentioned resistant bacteria; clinical usefulness [20]: very useful and effective semi-synthetic antibiotic in clinical tests
NCC[C@H](O)C(=O)N[C@@H]1C[C@H](N)[C@@H](O[C@H]2O[C@H](CN)[C@@H](O)C[C@H]2N)[C@H](O[C@@H]2O[C@H](CN)[C@H](O)[C@H]2O)[C@H]1O [compound 4, 1-N-((S)-4-amino-2-hydroxybutyryl)-5-O-(5-amino-5-deoxy-β-D-xylofuranosyl)-3'-doxyneamine]	3.12 (≈ 5.79 µM)	3.12 (≈ 5.79 µM)	0.78 (≈ 1.45 µM)	0.39 (≈ 0.724 µM)	0.39 (≈ 0.724 µM)	0.2 (≈ 0.371 µM)	0.39 (≈ 0.724 µM)	0.39 (≈ 0.724 µM)	3.12 (≈ 5.79 µM)	0.78 (≈ 1.45 µM)	0.2 (≈ 0.371 µM)	0.2 (≈ 0.371 µM)	0.2 (≈ 0.371 µM)	0.39 (≈ 0.724 µM)	0.78 (≈ 1.45 µM)	0.39 (≈ 0.724 µM)	0.2 (≈ 0.371 µM)	0.2 (≈ 0.371 µM)	3.12 (≈ 5.79 µM)	> 100	MIC [15]: 0.39 µg/mL (≈ 0.724 µM); MIC (Proteus rettgeri GN 466): 0.78 µg/mL (≈ 1.45 µM); MIC [16]: 0.78 µg/mL (≈ 1.45 µM); MIC [17]: 3.12 µg/mL (≈ 5.79 µM); MIC [18]: 0.39 µg/mL (≈ 0.724 µM)
NCC[C@H](O)C(=O)N[C@@H]1C[C@H](N)[C@@H](O[C@H]2O[C@H](CN)[C@@H](O)C[C@H]2N)[C@H](O[C@@H]2O[C@H](CO)[C@H](O)[C@H]2O)[C@H]1O [compound 6, 1-N-((S)-4-amino-2-hydroxybutyryl)-3'-deoxy-5-O-β-D-xylofuranosylneamine]	25 (≈ 46.3 µM)	25 (≈ 46.3 µM)	1.56 (≈ 2.89 µM)	0.39 (≈ 0.723 µM)	0.78 (≈ 1.45 µM)	0.39 (≈ 0.723 µM)	3.12 (≈ 5.78 µM)	0.39 (≈ 0.723 µM)	12.5 (≈ 23.2 µM)	1.56 (≈ 2.89 µM)	0.78 (≈ 1.45 µM)	0.78 (≈ 1.45 µM)	0.2 (≈ 0.371 µM)	0.39 (≈ 0.723 µM)	0.78 (≈ 1.45 µM)	0.2 (≈ 0.371 µM)	0.39 (≈ 0.723 µM)	0.2 (≈ 0.371 µM)	3.12 (≈ 5.78 µM)	> 100	MIC [15]: 0.39 µg/mL (≈ 0.723 µM); MIC (Proteus rettgeri GN 466): 0.78 µg/mL (≈ 1.45 µM); MIC [16]: 0.39 µg/mL (≈ 0.723 µM); MIC [17]: 25 µg/mL (≈ 46.3 µM); MIC [18]: 0.39 µg/mL (≈ 0.723 µM)
